Assay type in all cases: in vivo
The test system of one experiment is Phyllotreta striolata. As to the kind of experiment: Test for confirming effect on Phyllotreta striolata (bok choy seedling sprinkling, insecticidal rate). The protocol: Test for Confirming Effect on Phyllotreta striolata
A flowable agent containing the compound A was diluted with water containing RABIDEN 3S diluted 5000 times to prepare chemical solutions A containing the compound A at twice concentrations described in Table 5.
A preparation containing the compound B or a flowable agent containing the compound B was diluted with water containing RABIDEN 3S diluted 5000 times to prepare chemical solutions B containing the compound B at twice concentrations described in Table 5.
A mixed solution obtained by mixing the chemical solution A and the chemical solution B in an equivalent amount was sprinkled on bok choy seedlings (at the seventh true leaf stage) planted in 9-cm pots. After air dry, these bok choy seedlings were placed in plastic cups, and ten Phyllotreta striolata imagoes were released (AB mixture application plot).
(§1) The chemical solution A and the chemical solution B were twice diluted with the water containing RABIDEN 3S diluted 5000 times to obtain a chemical solution A′ and a chemical solution B′.
The chemical solution A′ was sprinkled on bok choy seedlings (at the seventh true leaf stage) planted in 9-cm pots. After air dry, these bok choy seedlings were placed in plastic cups, and ten Phyllotreta striolata imagoes were released (A single application plot). The chemical solution B′ was sprinkled on bok choy seedlings (at the seventh true leaf stage) planted in 9-cm pots. After air dry, these bok choy seedlings were placed in plastic cups, and ten Phyllotreta striolata imagoes were released (B single application plot).
Then, the bok choy seedlings sprinkled with the chemical solutions were placed in a thermostatic chamber at a temperature of 25° C. and a humidity of 60%, viability determination was performed 6 days after the insect release, and the insecticidal rate was calculated by the following equation. The test was repeated twice.
Insecticidal rate (%)=(the number of the dead insects/the number of tested insects)×100
(§2) To show the degree of a synergistic effect, the “effectiveness expectation” was calculated based on the Colby method. When the effectiveness is higher than the “effectiveness expectation”, it is determined that there is a synergistic effect.
(§3) Expectation of insecticidal rate (%) (E)=X+Y−XY/100
(§4) X: measurement of insecticidal rate in B single application plot (%)
(§5) Y: measurement of insecticidal rate in A single application plot (%)

In a further experiment the test system is Plutella xylostella. Nature of the experiment: Test for confirming effect on Plutella xylostella (cabbage leaf immersion, insecticidal rate). To be noted: single chemical. The procedure: Test for Confirming Effect on Plutella xylostella
A flowable agent containing the compound A was diluted with water containing RABIDEN® 3S diluted 5000 times to prepare chemical solutions A containing the compound A at twice concentrations described in Table 3.
A preparation containing the compound B or a flowable agent containing the compound B was diluted with water containing RABIDEN 3S diluted 5000 times to prepare chemical solutions B containing the compound B at twice concentrations described in Table 3, respectively.
Cabbage leaves were immersed in a mixed solution obtained by mixing the chemical solution A and the chemical solution B in an equivalent amount for 30 seconds, and these cabbage leaves were placed in a petri dish, and five second-instar Plutella xylostella larvae were released (AB mixture application plot).
as §1
Cabbage leaves were immersed in the chemical solution A′ for 30 seconds, and these cabbage leaves were placed in another petri dish, and five second-instar Plutella xylostella larvae were released (A single application plot). Cabbage leaves were immersed in the chemical solution B′ for 30 seconds, and these cabbage leaves were placed in another petri dish, and five second-instar Plutella xylostella larvae were released (B single application plot).
Then, these petri dishes were placed in a thermostatic chamber at a temperature of 25° C. and a humidity of 60%. Three days after the larva release, viability determination was performed, and the insecticidal rate was calculated by the following equation. The test was repeated twice.
(§6) Insecticidal rate (%)=(the number of dead insects/the number of tested insects)×100
as §2, §3, §4, §5

The next experiment relates to Aphis gossypii. Nature of the experiment: Test for confirming effect on Aphis gossypii (cucumber sprinkling, insecticidal rate). The procedure: Test for confirming effect on Aphis gossypii A flowable agent containing the compound A was diluted with water containing RABIDEN 3S diluted 5000 times to prepare chemical solutions A containing the compound A at twice concentrations described in Table 4.
A preparation containing the compound B or a flowable agent containing the compound B was diluted with water containing RABIDEN 3S diluted 5000 times to prepare chemical solutions B containing the compound B at twice concentrations described in Table 4.
First, 9-cm pots were sown with cucumbers. Aphis gossypii female imagoes were released on the cucumbers 10 days after the sprouting. The borne first-instar larvae were left, and the female imagoes were removed on the next day. A mixed solution obtained by mixing the chemical solution A and the chemical solution B in an equivalent amount was sprinkled on the cucumbers (AB mixture application plot).
as §1
The chemical solution A′ was sprinkled on the cucumbers sown with the first-instar larvae by the same method as in the AB mixture application plot (A single application plot). The chemical solution B′ was sprinkled on the cucumbers sown with the first-instar larvae by the same method as in the AB mixture application plot (B single application plot).
Then, the cucumbers sprinkled with the chemical solutions were placed in a thermostatic chamber at a temperature of 25° C. and a humidity of 60%, the viability of the Aphis gossypii was inspected after 6 days, and the insecticidal rate was calculated by the following equation. The test was repeated twice.
as §6, §2, §3, §4, §5

The mark [1] stands for this setting: Plutella xylostella, read-out: Effectiveness Measurement (insecticidal rate).
Setting [2] is: Aphis gossypii, 144 h, single chemical, 0.12 ppm, after 6 days, read-out: Effectiveness Measurement (insecticidal rate).
Where [3] appears, read: Phyllotreta striolata, 144 h, single application, 31 ppm, Phyllotreta striolata imagoes, 6 days after release, read-out: Effectiveness Measurement (insecticidal rate).
[4] abbreviates: Aphis gossypii, 144 h, single chemical, 2 ppm, after 6 days, read-out: Effectiveness Measurement (insecticidal rate).
[5] abbreviates: Phyllotreta striolata, 144 h, single application, Phyllotreta striolata imagoes, 6 days after release, read-out: Effectiveness Measurement (insecticidal rate).
[6] abbreviates: single chemical, 0.12 ppm, after 6 days.
[7] abbreviates: Plutella xylostella, 0.5 ppm, read-out: Effectiveness Measurement (insecticidal rate).
The mark [8] stands for this setting: Aphis gossypii, 144 h, single chemical, after 6 days, read-out: Effectiveness Measurement (insecticidal rate).

Structures can show the parent of a compound that is named as a salt. Where two headings read alike, the source gives them in different places.

With `N#Cc1ccc(CC(=NNC(=O)Nc2ccc(OC(F)(F)F)cc2)c2cccc(C(F)(F)F)c2)cc1` (mixture of isomers) [Metaflumizone, metaflumizone], the “Effectiveness Measurement (insecticidal rate)” value (“Effectiveness Measurement” for short) worked out at 40% with Phyllotreta striolata (single application, 31 ppm, Phyllotreta striolata imagoes, 6 days after release) and 20% with Plutella xylostella (0.5 ppm).

On to `Cc1c(COC(=O)[C@@H]2[C@H](/C=C(\Cl)C(F)(F)F)C2(C)C)cccc1-c1ccccc1` (racemic) [Bifenthrin], for which the pest or weed control at 125 ppm with Plutella xylostella (Plutella xylostella, 125 ppm, read-out: Effectiveness Measurement (insecticidal rate)) worked out at 40%. In addition, in the experiment on Aphis gossypii (Aphis gossypii, 144 h, single chemical, 0.03 ppm, after 6 days, read-out: Effectiveness Measurement (insecticidal rate)), the pest or weed control at 0.03 ppm worked out at 42%.

Turning to `COP(=O)(NC(C)=O)SC` (stereo not shown) [Acephate, acephate], the pest or weed control at 8 ppm with Phyllotreta striolata (Phyllotreta striolata, 144 h, read-out: Effectiveness Measurement (insecticidal rate)) was 40%. In the experiment with Aphis gossypii (Aphis gossypii, 144 h, read-out: Effectiveness Measurement (insecticidal rate)), the pest or weed control at 31 ppm turned out to be 50%.

Take `C/C(=N\C#N)N(C)Cc1ccc(Cl)nc1` [Acetamiprid, acetamiprid]: the pest or weed control at 8 ppm with Phyllotreta striolata (Phyllotreta striolata, 144 h, single application, 8 ppm, Phyllotreta striolata imagoes, 6 days after release, read-out: Effectiveness Measurement (insecticidal rate)) worked out at 20%; in the experiment with Plutella xylostella (setting [1]), 10%. Also, in the experiment with Aphis gossypii (setting [2]), the pest or weed control at 0.12 ppm came to 40%.

For `CC(C)N1C(=O)N(c2ccccc2)CS/C1=N\C(C)(C)C` [Buprofezin], in the experiment with Aphis gossypii (Aphis gossypii, 144 h, single chemical, 31 ppm, after 6 days, read-out: Effectiveness Measurement (insecticidal rate)), the pest or weed control at 31 ppm stood at 33%.

As to `CNC(=O)Oc1cccc2c1OC(C)(C)C2` [Carbofuran, carbofuran], the pest or weed control at 31 ppm in the experiment on Phyllotreta striolata (setting [3]) stood at 20%. In addition, the pest or weed control at 2 ppm in the experiment with Plutella xylostella (setting [1]) was determined as 10%; with Aphis gossypii (setting [4]), 14%.

Turning to `CN(C)C(CSC(N)=O)CSC(N)=O` [Cartap hydrochloride, cartap hydrochloride], the pest or weed control at 31 ppm with Phyllotreta striolata (setting [3]) amounted to 60%. Also, in the experiment on Plutella xylostella (setting [1]), the pest or weed control at 2 ppm came out at 40%.

As to `CCOCn1c(-c2ccc(Cl)cc2)c(C#N)c(Br)c1C(F)(F)F` [Chlorfenapyr, chlorfenapyr], the pest or weed control at 2 ppm in the experiment with Phyllotreta striolata (Phyllotreta striolata, 144 h, single application, 2 ppm, Phyllotreta striolata imagoes, 6 days after release, read-out: Effectiveness Measurement (insecticidal rate)) turned out to be 40%; in the experiment with Plutella xylostella (setting [1]) it was 20%; in the experiment on Aphis gossypii (setting [4]), 6%.

As for `CCS(=O)(=O)c1cc(C2CC2)cnc1-c1ncc(C=C(Cl)C(F)(F)F)n1C` [Compound (II)], the pest or weed control at 0.5 ppm in the experiment with Phyllotreta striolata (setting [5]) is 20%. Further, the pest or weed control at 0.12 ppm in the experiment with Plutella xylostella (Plutella xylostella, 0.12 ppm, read-out: Effectiveness Measurement (insecticidal rate)) was determined as 10%; in the experiment on Aphis gossypii (setting [2]) it was 18%. In addition, the “Effectiveness Measurement” value in the experiment on Plutella xylostella (0.12 ppm) came out at 10%; in the experiment with Aphis gossypii (setting [6]) it was 18%.

For `CCS(=O)(=O)c1cc(C2CC2)cnc1-c1ncc(C(F)C(F)(C(F)(F)F)C(F)(F)F)n1C` (stereo not shown) [Compound (III)], the pest or weed control at 0.5 ppm was found to be 20% with Phyllotreta striolata (setting [5]), 40% with Plutella xylostella (setting [7]) and 31% with Aphis gossypii (setting [8]).

As for `CCS(=O)(=O)c1cc(C(F)(F)F)cnc1-c1ncc(/C=C(\Cl)C(F)(F)C(F)(F)F)n1C` [Compound (IV)], the pest or weed control at 0.5 ppm with Phyllotreta striolata (setting [5]) amounted to 10%; in the experiment with Aphis gossypii (setting [8]) it was 64%. For the same compound, the pest or weed control at 0.03 ppm in the experiment on Plutella xylostella (Plutella xylostella, 0.03 ppm, read-out: Effectiveness Measurement (insecticidal rate)) came to 20%.

Regarding `CNC(=O)c1cc(C#N)cc(C)c1NC(=O)c1cc(Br)nn1-c1ncccc1Cl` [Cyantraniliprole, cyantraniliprole], the pest or weed control at 0.5 ppm in the experiment with Phyllotreta striolata (setting [5]) was 20%. Further, the pest or weed control at 8 ppm in the experiment with Plutella xylostella (setting [1]) was 10%. In addition, in the experiment with Aphis gossypii (setting [2]), the pest or weed control at 0.12 ppm amounted to 50%.

For the compound `N#Cc1nn(-c2c(Cl)cc(C(F)(F)F)cc2Cl)c(N)c1[S+]([O-])C(F)(F)F` (stereo not shown) [Fipronil, fipronil], the pest or weed control at 0.12 ppm with Phyllotreta striolata (Phyllotreta striolata, 144 h, single application, 0.12 ppm, Phyllotreta striolata imagoes, 6 days after release, read-out: Effectiveness Measurement (insecticidal rate)) is 20%. The pest or weed control at 0.5 ppm in the experiment on Plutella xylostella (setting [7]) was 40%; in the experiment with Aphis gossypii (setting [8]) it was 29%.

With `N#CCNC(=O)c1cnccc1C(F)(F)F` [Flonicamid], in the experiment on Aphis gossypii (setting [6]), the “Effectiveness Measurement” value was found to be 21%.

In the case of `CON=CNC(=O)c1ccc(C2=NOC(c3cc(Cl)cc(Cl)c3)(C(F)(F)F)C2)cc1C` (stereo not shown) [Fluxametamide, fluxametamide], the “Effectiveness Measurement” value is reported as 20% in the experiment on Phyllotreta striolata (single application, 2 ppm, Phyllotreta striolata imagoes, 6 days after release); 40% in the experiment on Plutella xylostella (0.12 ppm); 60% with Aphis gossypii (single chemical, 2 ppm, after 6 days).

Consider `CC1=NNC(=O)N(/N=C/c2cccnc2)C1` [Pymetrozine], for which the pest or weed control at 0.12 ppm with Aphis gossypii (setting [2]) amounted to 68%.

Take `CCc1ccc(C(=O)NN(C(=O)c2cc(C)cc(C)c2)C(C)(C)C)cc1` [Tebufenozide]: in the experiment on Plutella xylostella (Plutella xylostella, 31 ppm, read-out: Effectiveness Measurement (insecticidal rate)), the pest or weed control at 31 ppm is 40%.

Regarding `O=C(NC(=O)c1c(F)cccc1F)Nc1cc(Cl)c(F)c(Cl)c1F` [Teflubenzuron], in the experiment with Plutella xylostella (setting [7]), the pest or weed control at 0.5 ppm is 40%.

Consider `CCc1nn(C)c(C(=O)NCc2ccc(Oc3ccc(C)cc3)cc2)c1Cl` [Tolfenpyrad], for which, in the experiment with Plutella xylostella (setting [1]), the pest or weed control at 8 ppm worked out at 20%. Besides, the pest or weed control at 0.12 ppm in the experiment on Aphis gossypii (setting [2]) stood at 18%.

Take Abamectin: the “Effectiveness Measurement” value in the experiment with Plutella xylostella (0.5 ppm) was 40%.

Consider Spinetoram, for which the “Effectiveness Measurement” value in the experiment with Plutella xylostella (0.0076 ppm) stood at 40%.

(Values after patent US20230157288A1, “PEST CONTROL METHOD, PEST CONTROL AGENT COMPOSITION, AND PEST CONTROL AGENT SET” (priority 2020, published 2023).)
